Measured values published in patent publication US11491155B2, “Salt of a pyrimido[6,1-A]isoquinolin-4-one compound” (VERONA PHARMA PLC, priority 2015, dated 2022).
Where two headings read alike, the source gives them in different places.

Columns and labels:
[1] = Physico-chemical characteristics of salt candidates: solubility in water, pH of aqueous suspension/solution, form post water maturation
[2] = Intrinsic dissolution of compressed tablet, pH 7.0, 37° C. (Sirius inForm); format: physicochemical; details: pH 7.0, 0.15 M NaCl, 37° C.
Description: The dissolution assay (pH-dependent sample dissolution) was investigated using the Sirius inForm.
Dissolution of a compressed tablet of the compound was monitored in a pH 7.0 aqueous dissolution experiment (0.15 M NaCl) at 37° C. using UV-absorption spectroscopy in 2 hour experiments. A tablet with a diameter of 3 mm, requiring approximate weights of 10 mg was compressed under a weight of 100 kg load force. Only one face of the tablet was exposed to the dissolution medium, which contained a 0.01 M acetate/phosphate buffer system to minimise perturbation of the experimental pH from dissolution of the drug.
Stirring of the solution was continuous and at a constant rate of 100 rpm. The absorption data was converted to absolute sample weights using previously determined, pH-dependent, molar extinction coefficients. An appropriate wavelength range was chosen to ensure that spectroscopic data with an absorption value of <1.3 was analysed, avoiding erroneous dissolution results due to saturation of the UV light source.

[3] = Primary particle size analysis by laser light diffraction (Mastersizer 2000); format: physicochemical; details: micronised, mean n=3
Description: A Mastersizer 2000 fitted with a Scirocco 2000 dry powder dispersion unit (Malvern Instruments Ltd, UK) was used to analyse the primary particle size of the micronised RPL554 and salt variants. The salts (50 mg) were automatically sampled via a vibrating feed control at a feeder rate of 60% and dispersed in compressed air at a pressure of 3 bar.

[4] = Aerosol performance of DPI formulations (Cyclohaler, NGI); format: physicochemical; details: for †Measured Mass of 1% w/w Blend Delivered per capsule / ††RPL554 Emitted (μg) per capsule (B): Cyclohaler; for †Measured Mass of 1% w/w Blend Delivered per capsule: 5 capsules containing 20 mg powder blend, mass from weight change of capsule-loaded device; for ††RPL554 Emitted (μg) per capsule (B): NGI, mass determined from HPLC analysis of recovered samples; for ††RPL554 Emitted (μg) per capsule (B) / Calculated RPL554 Content (μg) per capsule (A): as RPL554 base; for Calculated RPL554 Content (μg) per capsule (A): calculated from delivered blend mass and measured blend content
Description: Capsules were hand filled with 20 mg of the 1% w/w RPL554 free base or salt variants: lactose blends, i.e. 200 μg salt per capsule, the fill weight of each capsule was recorded. Due to differences in the molecular weights of the RPL554 salt forms, the amount of RPL554 emitted per actuation varied as a function of molecular weight. The formulations were prepared with no adjustment for differences in molecular weight of the salts.
The powders were delivered via the Cyclohaler® DPI (PCH Pharmachemie, BV, The Netherlands). The Cyclohaler® DPI is a low resistance device and was operated at a flow rate of 90 L/min for 2.7 seconds. The cut off diameters for the NGI collection stages were calculated for the 90 L/min flow rate using the NGI User Guide (MSP Corporation, 2008).
The ED, FPD and FPF were determined from inertial impaction tests performed following the deposition of 5 capsules of each formulation into the NGI. For each capsule tested the combined weight of the Cyclohaler® and capsule was determined before and after operation to check that the dose had been delivered. The NGI was fitted with a pre-separator for these determinations. The central cup of the pre-separator was filled with 15 mL of diluent. Following deposition, the solution was recovered in a 20 mL volumetric flask and made up to volume with diluent. RPL554 was quantitatively recovered from the device, induction port and each of the NGI collection stages with 10 mL of diluent.
The volume of diluent used for each sample was selected to ensure RPL554 concentrations were above the limit of quantitation.

[5] = RPL554 content and content uniformity of 1% w/w lactose powder blends; format: physicochemical; details: for Measured Blend Content (% Theoretical): 1% w/w RPL554 variant: lactose powder blend, expressed as RPL554 base; for **Adjusted RPL554 Content per capsule: per 20 mg capsule of 1% w/w lactose blend, adjusted for measured blend content (% theoretical), as RPL554 base
Description: Batches (approximately 5 g) of 1% w/w RPL554 free base or salt variants: lactose blends were prepared. In brief, the RPL554 free base or salt plus a small quantity of lactose was passed through a 38 μm sieve. The sieved material plus the remaining lactose was mixed in a glass mortar prior to transfer to a stainless steel screw cap jar and further mixing (10 minutes at 46 rpm) conducted using a Turbula blender. The composition of the dry powder blend was 0.05 g API and 4.95 g lactose.
In order to determine the content uniformity of the blends, aliquots (approx. 20 mg) of powder were sampled from each blend, accurately weighed, and diluted to volume in 10 mL volumetric flasks with diluent. The flasks were sonicated for 3 minutes before samples were transferred to HPLC vials for analysis.

[6] = Solubility of RPL554 and salts in pMDI propellant systems; format: physicochemical
Description: Quantitative assessment of the solubility of RPL554 and salt variants in the propellant systems of selected pMDI formulations (three replicates of each formulation) was performed. pMDIs were directly coupled to an adaptor fitted with a 0.20 μm filter unit connected, in series to a 21 G needle, which was inserted via a rubber septum, into a cooled multi-dose glass vial. A 19 G filter needle was inserted through the septum to aid evaporation of propellant from the vial. Prior to the filtration process the vial was cooled in a mixture of dry ice and acetone to ensure that the pressure within the vial was reduced in order to facilitate collection of the output from the pMDI. Ten consecutive actuations of the pMDI were fired through the filter and collected in the vial. Between actuations the canister was shaken for approximately 10 seconds. The pMDI unit was weighed before and after the filtering procedure. The filtrate was stored at room temperature and allowed to evaporate to dryness.
Samples were recovered by carefully rinsing the inside of the vials with 1 mL of recovery solution before transfer to HPLC vials for analysis. The estimated % of RPL554 solubilised within the canister was calculated from the starting mass of RPL554 within the canisters, which in turn was calculated using the theoretical molecular weight values of the RPL554 free base and salt variants shown in Table 13. The theoretical molecular weight estimates of the salts were provided by Verona.

[7] = Solubility of RPL554 salts in saline solutions, water and aqueous buffer solutions at 25° C. (HPLC); format: physicochemical; details: for solubility at 24 h: thermodynamic from solid
Description: The behaviour of salts of RPL554 were examined under the following conditions: • Phosphate buffered to pH 3.5 in saline, 0.9% w/w at 25° C. • Acetate buffered to pH 4.5 in saline, 0.9% w/w at 25° C. • Citro-Phosphate buffered to pH 4.5 in saline, 0.9% w/w at 25° C. • Phosphate buffered to pH 6.5 in saline, 0.9% w/w at 25° C. • Saline, 0.7, 0.9 and 1.1% w/w at 25° C. • Deionised water at 25° C.
RPL554 salts and RPL554, ca 50 mg, were suspended in the various aqueous media, 1 ml, with agitation at the specified temperatures for 24 hours. The solids were isolated and dried in vacuo at 45° C. The retained filtrates were examined by HPLC.
Additional RPL554 methane sulfonate salt, ca 50 mg, was charged to the water mixtures at 25° C. and 37.5° C. in order to afford a suspension. In all other cases, suspensions were obtained.
The solubility of the RPL554 was determined by HPLC using a single point calibration and is expressed as RPL554 and not as the salt and are detailed in Table 6 and Table 7 for the various conditions utilised.

[8] = listed as benzenesulfonate salt
[9] = HFA 134a: 227: 10% Ethanol: 0.1% Tween
[10] = in HFA 134, listed as Free Base
[11] = in HFA 134 with Ethanol/Tween, listed as Free Base

Compound: COc1cc2c(cc1OC)-c1c/c(=N\c3c(C)cc(C)cc3C)n(CCNC(N)=O)c(=O)n1CC2 [Benzenesulfonate, RPL554 benzenesulfonate]
- pH of aqueous suspension/solution ([1]; listed as Benzene sulfonic): 3.43
- solubility ([1]; water): 1470 µg/mL
- Mass of salt (μg) dissolved after 2 hours, Average [2, 8]: 60.1 µg
- Mass of salt (μg) dissolved after 2 hours, Test 1 [2, 8]: 50.0 µg
- Mass of salt (μg) dissolved after 2 hours, Test 2 [2, 8]: 70.1 µg
- D (0.1) (μm) [3]: 0.46 μm
- D (0.5) (μm) [3]: 1.23 μm
- D (0.9) (μm) [3]: 3.51 μm
- †Measured Mass of 1% w/w Blend Delivered per capsule [4]: 20.04 mg
- ††RPL554 Emitted (μg) per capsule (B) [4]: 87.57 µg
- Calculated RPL554 Content (μg) per capsule (A) [4]: 134.49 µg
- Measured Blend Content (% Theoretical) [5]: 89.34 % Theoretical
- **Adjusted RPL554 Content per capsule [5]: 134.22 µg
- Estimated RPL554 solubilised (%) ([6]; in HFA 134 with Ethanol/Tween): 4.03%
- Estimated Solubilised RPL554 μg per 50 μL actuation ([6]; in HFA 134 with Ethanol/Tween): 6.05 µg
- Solubility RPL554 ([6]; in HFA 134 with Ethanol/Tween): 90.57 µg/g
- solubility at 24 h ([7]; 0.7% w/w saline, saline or isotonic, 24 hours, read-out: Solubility as RPL554 (mg/ml) in 0.7 w/w % Saline): 2.27 mg/mL
- solubility at 24 h ([7]; 0.9% w/w saline, saline or isotonic, 24 hours, read-out: Solubility as RPL554 (mg/ml) in 0.9 w/w % Saline): 2.74 mg/mL
- solubility at 24 h ([7]; 1.1% w/w saline, saline or isotonic, 24 hours, read-out: Solubility as RPL554 (mg/ml) in 1.1 w/w % Saline): 2.94 mg/mL
- solubility at 24 h ([7]; acetate buffer in 0.9% w/w saline, pH 4.5, aqueous buffer, in saline 0.9% w/w, read-out: Solubility as RPL554 (mg/ml) in buffer solution pH 4.5, Acetate): 1.39 mg/mL
- solubility at 24 h ([7]; citro-phosphate buffer in 0.9% w/w saline, pH 4.5, aqueous buffer, in saline 0.9% w/w, read-out: Solubility as RPL554 (mg/ml) in buffer solution pH 4.5, Citro-phosphate): 1.57 mg/mL
- solubility at 24 h ([7]; phosphate buffer in 0.9% w/w saline, pH 3.5, aqueous buffer, in saline 0.9% w/w, read-out: Solubility as RPL554 (mg/ml) in buffer solution pH 3.5, Phosphate): 1.1 mg/mL
- solubility at 24 h ([7]; deionised water, 24 hours, read-out: Solubility as RPL554 (mg/ml) in Water): 2.57 mg/mL

Compound: COc1cc2c(cc1OC)-c1c/c(=N\c3c(C)cc(C)cc3C)n(CCNC(N)=O)c(=O)n1CC2 [Naphthalene-2-sulfonate]
- Solubility as RPL554 (mg/ml) in 0.7 w/w % Saline ([7]; 24 hours): 0.17 mg/mL
- Solubility as RPL554 (mg/ml) in 0.9 w/w % Saline ([7]; 24 hours): 0.09 mg/mL
- Solubility as RPL554 (mg/ml) in 1.1 w/w % Saline ([7]; 24 hours): 0.09 mg/mL
- Solubility as RPL554 (mg/ml) in Water ([7]; deionised water, 24 hours): 0.13 mg/mL

Compound: COc1cc2c(cc1OC)-c1c/c(=N\c3c(C)cc(C)cc3C)n(CCNC(N)=O)c(=O)n1CC2 [Phosphate, RPL554 phosphate]
- pH of aqueous suspension/solution ([1]; listed as Phosphoric): 3.08
- Solubility as RPL554 (mg/ml) in 0.7 w/w % Saline ([7]; 24 hours): 7.22 mg/mL
- Solubility as RPL554 (mg/ml) in 0.9 w/w % Saline ([7]; 24 hours): 4.78 mg/mL
- Solubility as RPL554 (mg/ml) in 1.1 w/w % Saline ([7]; 24 hours): 2.86 mg/mL
- Solubility as RPL554 (mg/ml) in Water ([7]; deionised water, 24 hours): 41.84 mg/mL

Compound: COc1cc2c(cc1OC)-c1c/c(=N\c3c(C)cc(C)cc3C)n(CCNC(N)=O)c(=O)n1CC2 [RPL554, 9,10-dimethoxy-2-(2,4,6-trimethylphenylimino)-3-(N-carbamoyl-2-aminoethyl)-3,4,6,7-tetrahydro-2H-pyrimido[6,1-a]isoquinolin-4-one]
- Mass of salt (μg) dissolved after 2 hours, Average ([2]; listed as free base): 13.5 µg
- Mass of salt (μg) dissolved after 2 hours, Test 1 ([2]; listed as free base): 10.0 µg
- Mass of salt (μg) dissolved after 2 hours, Test 2 ([2]; listed as free base): 17.0 µg
- D (0.1) (μm) ([3]; listed as Free base): 0.58 μm
- D (0.5) (μm) ([3]; listed as Free base): 1.37 μm
- D (0.9) (μm) ([3]; listed as Free base): 3.00 μm
- †Measured Mass of 1% w/w Blend Delivered per capsule ([4]; listed as Free Base): 20.12 mg
- ††RPL554 Emitted (μg) per capsule (B) ([4]; listed as Free Base): 133.59 µg
- Calculated RPL554 Content (μg) per capsule (A) ([4]; listed as Free Base): 194.03 µg
- Measured Blend Content (% Theoretical) ([5]; listed as Free Base): 96.44 % Theoretical
- **Adjusted RPL554 Content per capsule ([5]; listed as Free Base): 192.87 µg
- Estimated Solubilised RPL554 μg per 50 μL actuation [6, 9]: 1.06 µg
- Solubility RPL554 [6, 9]: 16.11 µg/g
- Estimated RPL554 solubilised (%) ([6]; HFA 134a: 227: 10% Ethanol: 0.1% Tween, listed as Free base): 0.53%
- Solubility RPL554 (μg/g) ([6]; in HFA 134, BLQ = below limit of quantitation (0.06 μg/mL), listed as Free Base): BLQ
- Calculated RPL554 solubilised (%) [6, 10]: BLQ
- Calculated Solubilised RPL554 μg per 50 μL actuation [6, 10]: BLQ
- Estimated RPL554 solubilised (%) [6, 11]: 0.56%
- Estimated Solubilised RPL554 μg per 50 μL actuation [6, 11]: 1.12 µg
- Solubility RPL554 [6, 11]: 16.45 µg/g

Compound: COc1cc2c(cc1OC)-c1c/c(=N\c3c(C)cc(C)cc3C)n(CCNC(N)=O)c(=O)n1CC2 [Sulfuric - ethanol solution]
- pH of aqueous suspension/solution [1]: 3.28
